Patent US20240309038A1, “NOVEL GALACTOSIDE INHIBITOR OF GALECTINS” (GALECTO BIOTECH AB, priority 2020, published 2024)

target: Gal-3 (Homo sapiens, UniProt P17931); assay: Fluorescence anisotropy assay, inhibition of galectin / fluorescein tagged saccharide probe interaction; type: binding
Description: The affinity of Example 1-59 for galectins were determined by a fluorescence anisotropy assay where the compound was used as an inhibitor of the interaction between galectin and a fluorescein tagged saccharide probe as described Sörme, P., Kahl-Knutsson, B., Huflejt, M., Nilsson, U. J., and Leffler H. (2004) Fluorescence polarization as an analytical tool to evaluate galectin-ligand interactions. Anal. Biochem. 334: 36-47, (Sarme et al., 2004)

Chain of Gal-3 (P17931 whole entry, species assumed): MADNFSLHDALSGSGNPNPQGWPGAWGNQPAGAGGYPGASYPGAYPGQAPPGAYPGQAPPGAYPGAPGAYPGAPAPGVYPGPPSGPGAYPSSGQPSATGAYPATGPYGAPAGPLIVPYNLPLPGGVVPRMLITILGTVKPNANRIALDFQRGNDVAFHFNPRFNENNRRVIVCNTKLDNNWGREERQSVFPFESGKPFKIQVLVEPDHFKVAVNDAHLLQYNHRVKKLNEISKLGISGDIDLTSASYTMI

Kd [nM]	SMILES
370	Cc1nnc([C@@H]2OC(CO)[C@H](O)C(n3cc(-c4cc(F)c(Cl)c(F)c4)cn3)C2O)n1-c1cc(Cl)ccc1C(F)(F)F (single isomer, unassigned) [Example 10, 1-{3-{3-[4-(4-Chloro-3,5-difluorophenyl)-1H-1,2-pyrazol-1-yl]-3-deoxy-β-D-galactopyranosyl}-5-methyl-4H-1,2,4-triazol-4-yl}-5-chloro-2-(trifluoromethyl)benzene]
200	Cc1nc([C@@H]2OC(CO)[C@H](O)C(n3cc(-c4cc(F)c(F)c(F)c4)cn3)C2O)n(-c2cc(-c3cc(F)c(F)c(F)c3)ccc2C(F)(F)F)n1 (stereo in doubt) [Example 4, 1-{5-{3-Deoxy-3-[4-(3,4,5-trifluorophenyl)-1H-1,2-pyrazol-1-yl]-β-D-galactopyranosyl}-3-methyl-1H-1,2,4-triazol-1-yl}-2-(trifluoromethyl)-2-(3,4,5-trifluorophenyl)benzene]
10	Cc1nc([C@@H]2OC(CO)[C@H](O)C(n3cc(-c4cc(F)c(F)c(F)c4)cn3)C2O)n(-c2cc(F)c3nc(C)sc3c2)n1 (stereo in doubt) [Example 39, 6-{5-{3-Deoxy-3-[4-(3,4,5-trifluorophenyl)-1H-1,2-pyrazol-1-yl]-β-D-galactopyranosyl}-3-methyl-1H-1,2,4-triazol-1-yl}-4-fluoro-2-methylbenzothiazole]
9	Cc1nc([C@@H]2OC(CO)[C@H](O)C(n3cc(-c4cc(F)c(F)c(F)c4)cn3)C2O)n(-c2cc(Cl)ccc2C(F)(F)F)n1 (stereo in doubt) [Example 3, 5-Chloro-1-{5-{3-deoxy-3-[4-(3,4,5-trifluorophenyl)-1H-1,2-pyrazol-1-yl]-β-D-galactopyranosyl}-3-methyl-1H-1,2,4-triazol-1-yl}-2-(trifluoromethyl)benzene]
24	Cc1nc([C@@H]2OC(CO)[C@H](O)C(n3cc(-c4cc(F)c(Cl)cn4)cn3)C2O)n(-c2cc(Cl)ccc2C(F)(F)F)n1 (stereo in doubt) [Example 14, 1-{5-{3-[4-(5-Chloro-4-fluoropyridin-2-yl)-1H-1,2-pyrazol-1-yl]-3-deoxy-β-D-galactopyranosyl}-3-methyl-1H-1,2,4-triazol-1-yl}-5-chloro-2-(trifluoromethyl)benzene]
12	Cc1nc([C@@H]2OC(CO)[C@H](O)C(n3cc(-c4cc(F)c(F)c(F)c4)cn3)C2O)n(-c2cc(C#N)c3nc(C)sc3c2)n1 (stereo in doubt) [Example 42, 4-Cyano-6-{5-{3-deoxy-3-[4-(3,4,5-trifluorophenyl)-1H-1,2-pyrazol-1-yl]-β-D-galactopyranosyl}-3-methyl-1H-1,2,4-triazol-1-yl}-2-methylbenzothiazole]
7	Cc1nnc([C@@H]2OC(CO)[C@H](O)C(n3cc(-c4cc(F)c(Cl)c(F)c4)cn3)C2O)n1-c1cc(Cl)ccc1C(F)(F)F (single isomer, unassigned) [Example 11, 1-{3-{3-[4-(4-Chloro-3,5-difluorophenyl)-1H-1,2-pyrazol-1-yl]-3-deoxy-β-D-galactopyranosyl}-5-methyl-4H-1,2,4-triazol-4-yl}-5-chloro-2-(trifluoromethyl)benzene]
60	C#Cc1c(F)cc(-c2cnn(C3C(O)[C@H](c4nc(C)nn4-c4cc(Cl)ccc4C(F)(F)F)OC(CO)[C@@H]3O)c2)cc1F (stereo in doubt) [Example 17, 5-Chloro-1-{5-{3-deoxy-3-[4-(4-ethynyl-3,5-difluorophenyl)-1H-1,2-pyrazol-1-yl]-β-D-galactopyranosyl}-3-methyl-1H-1,2,4-triazol-1-yl}-2-(trifluoromethyl)benzene]
11	Cc1nc([C@@H]2OC(CO)[C@H](O)C(n3cc(-c4cc(F)c(F)c(F)c4)cn3)C2O)n(-c2cc3sc(C)nc3cc2Br)n1 (stereo in doubt) [Example 43, 5-Bromo-6-{5-{3-deoxy-3-[4-(3,4,5-trifluorophenyl)-1H-1,2-pyrazol-1-yl]-β-D-galactopyranosyl}-3-methyl-1H-1,2,4-triazol-1-yl}-2-methylbenzothiazole]
130	Cc1nc([C@@H]2OC(CO)[C@H](O)C(n3cc(-c4cccc(F)n4)cn3)C2O)n(-c2cc(Cl)ccc2C(F)(F)F)n1 (stereo in doubt) [Example 6, 5-Chloro-1-{5-{3-deoxy-3-[4-(6-fluoropyridin-2-yl)-1H-1,2-pyrazol-1-yl]-β-D-galactopyranosyl}-3-methyl-1H-1,2,4-triazol-1-yl}-2-(trifluoromethyl)benzene]
26	C#CCc1c(F)cc(-c2cnn(C3C(O)[C@H](c4nc(C)nn4-c4cc(Cl)ccc4C(F)(F)F)OC(CO)[C@@H]3O)c2)cc1F (stereo in doubt) [Example 18, 5-Chloro-1-{5-{3-deoxy-3-{4-[3,5-difluoro-4-(2-propyn-1-yl)phenyl]-1H-1,2-pyrazol-1-yl}-β-D-galactopyranosyl}-3-methyl-1H-1,2,4-triazol-1-yl}-2-(trifluoromethyl)benzene]
80	Cc1nc([C@@H]2OC(CO)[C@H](O)C(n3cc(-c4cc(F)c(F)c(F)c4)c(-c4ccccc4)n3)C2O)n(-c2cc(Cl)ccc2C(F)(F)F)n1 (stereo in doubt) [Example 47, 5-Chloro-1-{5-{3-deoxy-3-[4-(3,4,5-trifluorophenyl)-3-phenyl-1H-1,2-pyrazol-1-yl]-β-D-galactopyranosyl}-3-methyl-1H-1,2,4-triazol-1-yl}-2-(trifluoromethyl)benzene]
13	Cc1nc([C@@H]2OC(CO)[C@H](O)C(n3cc(-c4cc(F)c(C)cn4)cn3)C2O)n(-c2cc(Cl)ccc2C(F)(F)F)n1 (stereo in doubt) [Example 15, 5-Chloro-1-{5-{3-deoxy-3-[4-(4-fluoro-5-methylpyridin-2-yl)-1H-1,2-pyrazol-1-yl]-β-D-galactopyranosyl}-3-methyl-1H-1,2,4-triazol-1-yl}-2-(trifluoromethyl)benzene]
10	Cc1nc([C@@H]2OC(CO)[C@H](O)C(n3cc(-c4cc(F)c(F)c(F)c4)cn3)C2O)n(-c2cc(Cl)c3nc(C)sc3c2)n1 (stereo in doubt) [Example 41, 4-Chloro-6-{5-{3-deoxy-3-[4-(3,4,5-trifluorophenyl)-1H-1,2-pyrazol-1-yl]-β-D-galactopyranosyl}-3-methyl-1H-1,2,4-triazol-1-yl}-2-methylbenzothiazole]
11	Cc1nc([C@@H]2OC(CO)[C@H](O)C(n3cc(-c4ccc(C)c(F)c4)cn3)C2O)n(-c2cc(Cl)ccc2C(F)(F)F)n1 (stereo in doubt) [Example 57, 5-Chloro-1-{5-{3-deoxy-3-[4-(3-fluoro-4-methylphenyl)-1H-1,2-pyrazol-1-yl]-β-D-galactopyranosyl}-3-methyl-1H-1,2,4-triazol-1-yl}-2-(trifluoromethyl)benzene]
12	Cc1nc([C@@H]2OC(CO)[C@H](O)C(n3cc(-c4cc(F)c(Cl)c(F)c4)c(C#N)n3)C2O)n(-c2cc(Cl)ccc2C(F)(F)F)n1 (stereo in doubt) [Example 31, 1-{5-{3-[4-(4-Chloro-3,5-difluorophenyl)-3-cyano-1H-1,2-pyrazol-1-yl]-3-deoxy-β-D-galactopyranosyl}-3-methyl-1H-1,2,4-triazol-1-yl}-5-chloro-2-(trifluoromethyl)benzene]
